Experimental data published in ChEMBL document CHEMBL1151102, “Macrocyclic pyrrolizidine alkaloids from Senecio anonymus. Separation of a complex alkaloid extract using droplet counter-current chromatography” (J Nat Prod, 1988).
Values after ≈ are worked out from the molar mass of the structure shown.

Tested on: A204
Assay: Cytotoxicity against human A204 cells after 24 hrs by soft agar colony forming assay
Format: functional, cell-based
Conditions: A204, 24 h

Compound | IC50 [µg/mL]
C/C=C1/C[C@@H](C)[C@@](C)(O)C(=O)OCC2=CCN3CC[C@@H](OC1=O)[C@@H]23 [SENECIONINE] | 150 (≈ 447 µM)
C/C=C1\C[C@@H](C)[C@@](C)(O)C(=O)OCC2=CCN3CC[C@@H](OC1=O)[C@@H]23 [INTEGERRIMINE] | 120 (≈ 358 µM)
C[C@@H]1C[C@@]2(O[C@H]2C)C(=O)O[C@@H]2CCN(C)C/C=C(/COC(=O)[C@]1(C)O)C2=O [OTOSENINE] | 130 (≈ 341 µM)
C[C@H]1C(=O)O[C@@H]2CCN3CC=C(COC(=O)[C@](C)(O)[C@]1(C)O)[C@H]23 [MONOCROTALINE] | 316 (≈ 971 µM)
C/C=C1\C[C@@H](C)[C@](O)(CO)C(=O)OCC2=CCN3CC[C@@H](OC1=O)[C@@H]23 [RETRORSINE] | 120 (≈ 341 µM)
C/C=C1/C[C@@H](C)[C@@](C)(O)C(=O)OC/C2=C/CN(C)CC[C@@H](OC1=O)C2=O [NEOSENKIRKINE] | 221 (≈ 605 µM)
C/C=C1\C[C@@H](C)[C@@](C)(O)C(=O)OC/C2=C/CN(C)CC[C@@H](OC1=O)C2=O [SENKIRKINE] | 260 (≈ 711 µM)
C/C=C1/C[C@@H](C)[C@](O)(CO)C(=O)OC/C2=C/CN(C)CC[C@@H](OC1=O)C2=O [HYDROXYSENKIRKINE] | 360 (≈ 944 µM)
C[C@@H]1C/C(=C\CO)C(=O)O[C@@H]2CCN(C)C/C=C(/COC(=O)[C@]1(C)O)C2=O [ANONAMINE] | 153 (≈ 401 µM)
C/C=C1/C[C@@H](C)[C@@](C)(O)C(=O)OCC2=CC[N+]3([O-])CC[C@@H](OC1=O)[C@@H]23 (stereo not given in full) [SENECIONINE N-OXIDE] | 150 (≈ 427 µM)
